Test results taken from patent US9730906B2, “α-derivatives of cis-monounsaturated fatty acids for use as medicines” (UNIVERSITAT DE LES ILLES BALEARS, priority 2008, dated 2017).

Tests used:
A549 cells = assay: Growth/viability of A549 lung cancer cells in culture (cell count); format: cell-based, human; conditions: concentration that reduces the number of cells to half
Protocol: FIG. 3A. Cancer cells (A549) were treated with various concentrations of OHOD and MOD11 to determine whether the effect was dependent on the concentration. […] These cells were treated with different concentrations (0-400 μM) of OHOD and MOD11 and the number of cells was determined by flow cytometry.
FIG. 3B. Cancer cells (A549) were treated with compounds indicated on the horizontal axis for 48 hours at 150 μM. Then, the cells were counted and their number and percent of untreated (control) represented on the vertical axis.
Also, a series of α-derivatives of cis-monounsaturated fatty acids were used to investigate their effectiveness in cancer treatment. Two types of experiment were performed. Firstly, the dependency of the anti-tumour effect on concentration was investigated. To perform these experiments, human lung cancer cells (A549) were cultivated in RPMI medium, supplemented with 10% foetal bovine […], 10 mM Hepes (pH 7.4), 2 mM glutamine, 2 g/l bicarbonate, 1 g/l glucose, 100 units/ml penicillin, 0.1 mg/ml streptomycin, 0.25 μg/ml Amphotericin B, at 37° C. and in the presence of 5% CO2. In a first experimental series, these cells were treated with various concentrations (0-400 μM) of OHOD and MOD11 and the number of cells was determined by flow cytometry (FIG. 3A). […] In a second series, the anti-tumour effectiveness on A549 lung cancer cells was investigated at a single concentration (150 μM) and a time of 48 hours (FIG. 3B). […] Obviously, among the previous molecules, some lacked both modifications on the α-carbon and the double bond in cis configuration (EO, HDO, ODO) and had no therapeutic effect. […]

SF767 human tumour cells = assay: Growth of SF767 tumour cells in culture; format: cell-based; conditions: concentration that reduces the number of cells to half
Protocol: In a second experimental series, designed to discover whether these molecules are effective in treatment of different types of tumours, the effect of OHOD at various concentrations on human cells of different types of cancer was studied. These experiments were performed as described before, except that the M220 and HT-29 cell lines were cultured in DMEM medium and the MDA-MB-231 line was incubated in Leibowitz L-15 medium supplemented with 15% foetal bovine […]. […] Where the nature of the tumour process requires, application can be topical (use on the skin of active products for the treatment of melanoma and other cutaneous abnormalities of cancerous nature), which can be considered as cosmetic treatments when attempts are made to correct aesthetic defects.

[1] = tested on: SF767 human brain cancer cells; assay: Tumour volume in nude mice infected with SF767 human brain cancer cells; format: in vivo; conditions: 600 mg/kg daily for 50 days, p<0.001 vs control
Protocol: FIG. 6A. Effect of different salts of OHOD on human lung cancer in an animal cancer model. The volume of tumours in nude mice infected with SF767 human brain cancer cells (expressed as a percent compared to control) receiving various treatments. The animals received a vehicle (water: Control), 600 mg/kg of OHOD in the form of free fatty acid (OHOD), 600 mg/kg of sodium salt of OHOD (Na-OHOD) or 600 mg/kg of ammonium salt of OHOD (NH3OHOD) daily for 50 days.
FIG. 6B. Effect of different salts of OHOD on human lung cancer in an animal cancer model. The effect of different doses of sodium salt of OHOD (Na-OHOD) are shown on tumour volumes in mice infected with SF767 cells and treated with vehicle (control, 0 mg/kg), 100 mg/kg (100), 200 mg/kg (200), 400 mg/kg (400) and 600 mg/kg (600) for 50 days. * p<0.05; ***p<0.001.
One important characteristic of the molecules covered in the present invention is that they can form various types of salts. FIG. 6A and Table 5 show the therapeutic effects of various α-derivatives of cis-monounsaturated fatty acids and their salts. […] The specificity of this effect is determined by the relation between the dose and the effect these molecules have on the volume of human tumours implanted in animals (FIG. 6B).

hypertensive rats = assay: Arterial pressure in hypertensive rats after 8-day treatment (Table 5); format: in vivo, rat; conditions: arterial pressure, hypertensive rats, 8-day treatment, 400 mg/kg oral
[2] = Levels of cholesterol, triglycerides and glucose in rats after oral treatment; format: in vivo, rat; conditions: rats, daily dose of 600 mg/kg oral; untreated controls = 100%
Protocol: FIG. 13. The four bars, from left to right respectively, show the effect of treatments with vehicle (control, first bar), OHOD at 200 mg/kg (second bar), OHOD at 400 mg/kg (third bar) and OHOD at 600 mg/kg (fourth bar) on the cholesterol levels (group of four bars to the left), triglycerides (group of four bars in the middle) and glucose (group of four bars to the right). The treatments were oral in all cases and were maintained for 30 days. The values indicated are the average obtained in 6 animals per group.
FIG. 14. Effect of treatment with vehicle (control) or with the fatty acids of the invention (600 mg/kg) on the levels of cholesterol, triglycerides and glucose. The values indicated are the average of the values obtained in 6 animals. Each group of three bars represents treatment with a different fatty acid with the left bar corresponding to cholesterol, the middle bar to triglycerides and the right bar to glucose.
Metabolic diseases form a set of pathologies characterised by the accumulation or deficit of certain molecules (cholesterol, triglycerides, glucose, etc.) in the serum or tissues. These changes are the reflection of dysfunctions that are normally associated with errors in the activity of certain enzymes or in the control of these proteins. Among the most important metabolopathies are hypercholesterolemia (elevated levels of cholesterol), hypertriglyceridemia (elevated levels of triglycerides) and diabetes (elevated levels of glucose). These pathologies have high rates of incidence, morbidity and mortality, so that treatment is a first order necessity. […] For these experiments, the dose of fatty acid indicated (0, 200, 400 and 600 mg/kg) was supplied daily via the oral route. At the end of the treatment (30 days), blood was sampled from control and treated animals (n=6) and the levels of cholesterol, triglycerides and glucose were determined using standard colorimetric methods.
(§1) In a further experiment, the effect of various molecules at a single dose (600 mg/kg) was investigated. […] In this sense, modification on the α-carbon and the double bond in cis configuration are crucial elements for producing the therapeutic effect indicated above. […] Finally, the effect of α-derivatives of cis-monounsaturated fatty acids on the prevention of obesity was investigated. For this, a model of rat obesity induced by a cafeteria diet, where the hypercaloric food increases the weight of the animals very markedly, was used. There were various experimental groups (see Table 3), each of which consisted of 6 female Wistar Kyoto rats of 250-300 g in weight. All the animals received a standard diet for 2 weeks. In addition, 2 of the groups received an oral preventative pre-treatment of vehicle and the other groups received 300 mg/kg of the fatty acids indicated below. Afterwards, one of the control groups was maintained on a standard diet (lean control) and the other was fed on a cafeteria diet (obese control). The treated animal groups were fed on the cafeteria diet. Preventative pre-treatment was maintained for all the groups. After two weeks on these diets, the lean control group had increased their body weight by an average of 16±16 g, while the obese control group had increased their body weight by an average of 43±17 g (statistically significance difference, p<0.01).

[3] = Body weight of rats on cafeteria diet, no pre-treatment (Table 5); format: in vivo, rat; conditions: cafeteria diet for 2 weeks, 300 mg/kg daily oral, no pre-treatment
Description: (§2) The weight of treated animals was statistically less than the weight of obese control rats and statistically indistinguishable from that of lean control rats.

[4] = tested on: A549 cells of human lung adenocarcinoma; assay: Prevention of tumour development in nude mice injected with A549 cells; format: in vivo; conditions: 400 mg/kg per day oral, 2 weeks before and one month after A549 injection, compared with fatty acids not of Formula I, p<0.05
Description: FIG. 2. Preventative effect of various fatty acids against tumour development. […] Animals received treatment before injection of tumour cells and the treatment was subsequently maintained. Animals of the control group were not treated and the volume of their tumours was taken as the reference value (100%).
To determine whether the fatty acids of the invention have applications in the prevention of the development of tumour processes, an animal cancer model was used. This model consisted of immune-deprived animals ([Crl:Nu(Ico)-Fox 1] nude mice in which non-microcytic human lung cancer cells were injected (5×10^6 A549 cells per animal). The control group (infected with cancer cells but untreated) started to develop tumours that were visible after a few days. The sizes of the tumours were measured for the first time at 10 days after implanting the tumour and measurements continued for up to 31 days after the implantation with a digital calliper. The volume of the tumours was calculated with the following equation: v=w^2×l/2 where v is the volume of the tumour, w is its width and l is the length. Preventative treatments against development of the cancer were applied. To carry out these treatments, 400 mg/kg were administered per day for 2 weeks before the injection of tumour cells. This treatment was continued for one month after the implantation of the tumour cells and the volume of the tumours in the animals was measured. Each experimental group was composed of 8 animals. Oral administration of α-derivatives of cis-monounsaturated fatty acids prevented cancer development (A549 cells of human lung adenocarcinoma) (FIG. 2). […] Therefore it was concluded that the introduction of a double bond in the cis configuration in the structure of the fatty acid is a critical factor in the prevention and treatment by fatty acids of cancer development.

[5] = Rat obesity induced by cafeteria diet, preventative pre-treatment (Table 3); format: in vivo, Wistar Kyoto rats; conditions: 300 mg/kg oral, after two weeks on cafeteria diet; obese control 308 ± 17, lean control 280 ± 16; * lower than obese controls, ‡ indistinguishable
Protocol: as §1, §2

IL-6 = assay: Proinflammatory cytokines in U937 monocytes stimulated with LPS; format: cell-based, human; conditions: 250 μM, 72 h; Control 24 ± 3, LPS 1072 ± 4
Protocol: (§3) FIG. 18. Levels of interleukin 6 IL-6 (left bar) and […] TNF-α (right bar) in human monocytes in the absence (control) or presence of a pro-inflammatory treatment with bacterial lipopolysaccharide (LPS). Cells treated with LPS were cultured in the absence (Control+LPS) or presence of various fatty acids shown on the horizontal axis.
(§4) In an additional study on the release of various proinflammatory cytokines (IL-1b, IL-6, IL-8, IL-10) and TNF-α in U937 monocytes stimulated with bacterial lipopolysaccharide (LPS), a marked reduction in the levels of these molecules was observed after treatments with OHHD at a concentration of 250 μM and 72 h incubation (Table 4). The effect of the α-derivatives of cis-monounsaturated fatty acids (250 μM, 6 h) on the activity and expression of the COX-1 and COX-2 cyclooxygenases was investigated in the same system.

TNF-α = assay: as above; format: cell-based, human; conditions: 250 μM, 72 h; Control 15 ± 6, LPS 1504 ± 7
Protocol: as §3, §4

IL-10 = assay: as above; format: cell-based, human; conditions: 250 μM, 72 h; Control 32 ± 1, LPS 315 ± 9
Protocol: as §4

IL-1b = assay: as above; format: cell-based, human; conditions: 250 μM, 72 h; Control 12 ± 2, LPS 132 ± 2
Protocol: as §4

IL-8 = assay: as above; format: cell-based, human; conditions: 250 μM, 72 h; Control 345 ± 7, LPS 967 ± 8
Protocol: as §4

[6] = biological target: T1, cyclooxygenases-1 (COX-1) (Homo sapiens, UniProt P23219); assay: COX-1 activity in U937 differentiated monocytes (Cayman COX-1 inhibitor screening system); format: cell-based; conditions: 250 μM, 6 hours; compared with fatty acids not of Formula I, p<0.05
T1 construct: endogenous in cells; host or cells: U937 differentiated monocytes
Protocol: FIG. 19A. Effect of various fatty acids in the inhibition of the activity of cyclooxygenases-1 (COX-1) (Cayman COX-1 inhibitor screening system). […] Cell cultures (U937 differentiated monocytes) were treated with the fatty acids of the invention (250 μM, 6 hours).
as §4

cyclooxygenase-2 (COX-2) = assay: Cellular concentration of COX-2 in U937 differentiated monocytes (immunoblot); format: cell-based, human; conditions: 250 μM, 6 hours; compared with fatty acids not of Formula I, p<0.05
Protocol: FIG. 19B. Effect of various fatty acids in the inhibition (concentration of protein) of cyclooxygenase-2 (immunoblot of COX-2). […] Cell cultures (U937 differentiated monocytes) were treated with the fatty acids of the invention (250 μM, 6 hours).
as §4

T1 sequence (P23219 24-599): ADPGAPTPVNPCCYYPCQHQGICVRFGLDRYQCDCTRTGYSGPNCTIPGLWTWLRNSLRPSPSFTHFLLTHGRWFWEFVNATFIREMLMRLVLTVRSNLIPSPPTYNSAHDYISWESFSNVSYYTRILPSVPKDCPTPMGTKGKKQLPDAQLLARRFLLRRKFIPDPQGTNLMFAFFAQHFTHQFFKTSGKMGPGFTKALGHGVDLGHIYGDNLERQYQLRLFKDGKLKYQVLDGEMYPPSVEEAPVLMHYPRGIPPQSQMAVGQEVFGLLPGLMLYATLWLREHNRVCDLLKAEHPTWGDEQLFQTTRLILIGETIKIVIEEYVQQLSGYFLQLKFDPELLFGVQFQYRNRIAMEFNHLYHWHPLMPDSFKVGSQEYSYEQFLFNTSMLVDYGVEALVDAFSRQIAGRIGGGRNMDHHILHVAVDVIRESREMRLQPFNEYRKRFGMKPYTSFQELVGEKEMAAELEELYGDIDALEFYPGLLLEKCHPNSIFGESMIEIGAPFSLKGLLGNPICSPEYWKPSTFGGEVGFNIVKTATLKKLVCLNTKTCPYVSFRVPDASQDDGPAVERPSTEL

Row | SMILES | IC50 (A549 cells) [µM] | IC50 (SF767 human tumour cells) [µM] | volume of tumours (percent compared to control) [1] | PA (control 214 mmHg) (hypertensive rats) [mmHg] | % control CHO (cholesterol) [2] [% control] | % control TG (triglycerides) [2] [% control] | Body weight (g) (control = 311 g) [3] | tumour volume (prevention of tumour development) [4] | Final weight [5] | IL-6, LPS + OHHD (IL-6) [pg/mL] | TNF-α, LPS + OHHD (TNF-α) [pg/mL] | IL-10, LPS + OHHD (IL-10) [pg/mL] | IL-1b, LPS + OHHD (IL-1b) [pg/mL] | IL-8, LPS + OHHD (IL-8) [pg/mL] | inhibition of COX-1 activity (% of control) [6] | cellular concentration of COX-2 (% of control) (cyclooxygenase-2 (COX-2))
1 | CCCCCCCC/C=C\CCCCCCC(O)C(=O)O.N (stereo not shown) [NH3-OHOD] | 81 | 85 | significant reductions in the size of tumours | 149 | 59 | 62 | 290 | – | – | – | – | – | – | – | – | –
2 | CCCCCC/C=C\CCCCCCC(O)C(=O)O (stereo not drawn) [OHHD, α-Hydroxy-cis-Δ9-hexadecenoic] | – | – | – | – | – | – | – | more significant effect | 275 ± 19* g | 68 ± 8 | 65 ± 9 | 53 ± 3 | 41 ± 5 | 529 ± 7 | more significant effect | more significant effect
